Reference: patent publication US6740671B2 (priority 2000, dated 2004)

Assay: Foliar penetration of C14-labeled ethaboxam into cucumber
Format: in vivo
Settings: cucumber foliage, 24 hours after spotting; result in words
Method: In order to investigate the relationship of the concentration of polyoxyalkylene alkyl ether and the foliar penetration of ethaboxam, foliar penetration experiment was carried out using radioisotope [C^14]-labeled ethaboxam as follows.
Cucumber seeds were sown in a horticultural bed soil of pots having a diameter of 6 cm and grown under glass for 3 weeks. 10 mg of the formulation prepared in the comparative example was diluted in 10 ml of tap water. 20 μl of the diluted solution was taken and thereto was added 1.0 μCi of ethaboxam labeled with C^14(81.7 μCi/mg) to prepare the diluted ethaboxam formulation labeled with C^14. […]
The plants were cut at a distance of 1 cm from the bottom of soil and the cuts were introduced into 250 ml Erlenmeyer flaska 50 ml of the mixed solution of acetonitrile and distilled water(volume ratio=1:4) was added thereto and then, the flask was plugged and shaken for 1 minute. Radioactivity of C^14-ethaboxam in the solution was measured with a liquid scintillation counter and the residue was combusted with a sample oxidizer to collect C^14-carbon dioxide, which was analyzed with the liquid scintillation counter.
Foliar penetration of ethaboxam is calculated by subtracting radioactivity in the solution from the total radioactivity, which is identical with radioactivity in the residue.

Compound: CCNc1nc(CC)c(C(=O)NC(C#N)c2cccs2)s1 (stereo not drawn) [ethaboxam, N-(α-cyano-2-thenyl)-4-ethyl-2-(ethylamino)-5-thiazolecarboxamide]
- foliar penetration of ethaboxam: hardly penetrated into plants in the absence of adjuvant
